Measured values: ChEMBL document CHEMBL1201862, “PubChem BioAssay data set” (2004)
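A five-concentration, 48-hour dose response in 96-well plates underlies each endpoint, interpolated linearly between surrounding concentrations. The concentration for 50% growth inhibition is given as GI50.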 Calls of active or inactive are those of the source. No stated cut-off is given here; in the data, active = GI50 up to about 1.1 µM and inactive = higher.

Assays:
Experiment in all cases: NCI anticancer screen, dose series, 48 h
[1] = tested on: A549
[2] = tested on: COLO 205
[3] = tested on: EKVX
[4] = tested on: HCC 2998
[5] = tested on: IGROV-1
[6] = tested on: KM-20L2
[7] = tested on: M14
[8] = tested on: M19-MEL
[9] = tested on: MOLT-4
[10] = tested on: NCI-H226
[11] = tested on: SF-268
[12] = tested on: SF-295
[13] = tested on: SK-MEL-28
[14] = tested on: SN12C
[15] = tested on: SNB-19
[16] = tested on: SNB-75
[17] = tested on: TK-10
[18] = tested on: HCT-116

Measured: GI50

C[C@]12CCc3nonc3C1CC[C@@H]1C2CC[C@]2(C)C(=O)CCC12 (some centres not stated)
inactive: [1] 25.8 µM | [2] 24.3 µM | [3] 17.1 µM | [4] 26.5 µM | [5] 67.1 µM | [6] 26.5 µM | [7] 64.9 µM | [8] 25.8 µM | [9] 22.4 µM | [10] 76.9 µM | [11] 39.4 µM | [12] 26.3 µM | [13] > 10 µM | [14] 35.1 µM | [15] 81.1 µM | [16] 28.8 µM | [17] > 10 µM

COC(=O)C(=O)C(C(=O)C(=O)Nc1ccc([N+](=O)[O-])cc1[N+](=O)[O-])c1nc2ccc([N+](=O)[O-])cc2nc1O (configuration not stated)
inactive: [1] > 100 µM | [2] > 100 µM | [3] 38.2 µM | [4] > 100 µM | [18] > 100 µM | [5] > 100 µM | [6] > 100 µM | [7] > 100 µM | [8] > 100 µM | [9] > 100 µM | [10] > 100 µM | [11] > 100 µM | [12] > 100 µM | [14] > 100 µM | [15] > 100 µM | [16] 14.6 µM | [17] > 100 µM

CN1Cc2ccccc2C2(COc3ccccc3C2=O)C1 (configuration not stated)
inactive: [1] > 100 µM | [3] > 100 µM | [4] > 100 µM | [18] > 100 µM | [5] 28.7 µM | [6] > 100 µM | [7] > 100 µM | [8] > 100 µM | [9] 40.8 µM | [10] 35.7 µM | [11] > 100 µM | [12] > 100 µM | [14] > 100 µM | [15] > 100 µM | [16] > 100 µM | [17] > 100 µM

N=C(NC(=N)Nc1ccc(S(=O)(=O)Nc2cnc3ccccc3n2)cc1)Nc1ccc(Br)cc1
inactive: [1] > 100 µM | [2] > 100 µM | [3] > 100 µM | [4] > 100 µM | [5] > 100 µM | [6] > 100 µM | [7] > 100 µM | [8] > 100 µM | [9] > 100 µM | [10] > 100 µM | [11] > 100 µM | [12] > 100 µM | [13] > 100 µM | [14] > 100 µM | [15] > 100 µM | [16] 40.6 µM | [17] > 100 µM
